The source made the active and inactive calls.
What was measured:
[1] = test system: Streptococcus sp. 'group A'; assay: Streptococcus pyogenes SK(-)GAS viability under kanamycin – luminescence, BacTiterGlo, confirmation, counter-screen for streptokinase expression inhibitor project, dose response (AID 1900); assay type: functional, organism-based
Protein skinhead-1 = target: T1, Protein skinhead-1 (Caenorhabditis elegans, UniProt P34707); assay type: functional
T1 sequence (P34707 whole entry): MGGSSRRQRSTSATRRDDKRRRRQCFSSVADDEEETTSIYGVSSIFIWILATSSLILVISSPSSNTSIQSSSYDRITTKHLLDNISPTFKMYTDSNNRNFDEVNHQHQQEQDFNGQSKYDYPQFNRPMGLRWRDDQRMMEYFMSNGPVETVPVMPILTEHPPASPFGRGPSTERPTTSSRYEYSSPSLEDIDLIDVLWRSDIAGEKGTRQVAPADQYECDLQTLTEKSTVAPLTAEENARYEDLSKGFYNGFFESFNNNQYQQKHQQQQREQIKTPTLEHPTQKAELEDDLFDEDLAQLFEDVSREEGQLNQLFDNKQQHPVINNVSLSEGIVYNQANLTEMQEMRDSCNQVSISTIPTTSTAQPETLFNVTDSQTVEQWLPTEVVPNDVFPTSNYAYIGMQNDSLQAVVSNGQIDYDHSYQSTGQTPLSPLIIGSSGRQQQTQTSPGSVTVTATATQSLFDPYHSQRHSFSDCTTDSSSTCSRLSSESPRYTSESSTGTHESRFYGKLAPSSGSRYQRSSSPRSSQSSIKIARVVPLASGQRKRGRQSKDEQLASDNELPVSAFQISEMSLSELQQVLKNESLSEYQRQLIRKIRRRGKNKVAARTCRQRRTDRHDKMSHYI

Streptococcus = assay: GAS UMAA2166 growth inhibition – luminescence, BacTiterGlo, counter-screen for streptokinase expression inhibitor project, dose response (AID 1915); assay type: functional, organism-based;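 also: potency for reduction of bacterial viability or growth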
Streptokinase A = target: T2, Streptokinase A (Streptococcus pyogenes serotype M1, UniProt P10520); assay: viability-normalized secreted streptokinase activity reduction – plasminogen activation absorbance, OD405, dose response (AID 1914); assay type: functional, Streptococcus pyogenes M1 GAS;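 also: secreted streptokinase activity via plasminogen activation per viability signal from cell pellet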
T2 sequence (P10520 whole entry): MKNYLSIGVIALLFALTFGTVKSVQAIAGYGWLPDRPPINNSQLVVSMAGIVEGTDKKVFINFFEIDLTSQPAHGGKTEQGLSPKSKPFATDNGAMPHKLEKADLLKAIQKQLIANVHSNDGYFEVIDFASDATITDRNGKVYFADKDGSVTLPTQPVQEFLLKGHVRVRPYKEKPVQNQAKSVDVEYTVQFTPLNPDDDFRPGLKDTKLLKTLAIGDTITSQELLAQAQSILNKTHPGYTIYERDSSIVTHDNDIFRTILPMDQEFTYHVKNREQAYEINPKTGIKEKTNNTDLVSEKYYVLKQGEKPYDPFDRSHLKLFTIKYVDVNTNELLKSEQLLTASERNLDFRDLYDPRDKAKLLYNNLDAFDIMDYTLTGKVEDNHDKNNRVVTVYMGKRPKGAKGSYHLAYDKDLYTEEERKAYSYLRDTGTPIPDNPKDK

[2] = viability of PTEN-deleted HCT116 cells – cell-based, HCT116 PTEN knockout, dose response (AID 1047); assay type: functional;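 also: HCT116 colon tumor cells with PTEN knocked out; cells exposed to compound for 60 hours before readout; potency for loss of cell viability measured by luminescence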
[3] = viability of HCT116 lacking mutant beta-catenin – cell-based, human colon tumor, dose response (AID 1045); assay type: functional;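 also: HCT116 colon tumor cells with beta catenin knocked out; cells exposed to compound for 60 hours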
[4] = Luminescence Cell-Based Dose Response HTS to Identify Inhibitors of 5'UTR Stem-Loop Driven Prion Protein mRNA Translation in H4 Neuroglioblastoma Cells. [Related pubchem assays: 1827 (Project Summary), 1813 (Primary HTS)]; assay type: functional
[5] = alpha-synuclein stem-loop luciferase translation blockers – H4 neuroglioma cells, luminescence, confirmation (AID 1988); assay type: functional, cell-based
[6] = luciferase reporter signal suppression in cells – H4 neuroglioma cells, luminescence, dose response (AID 1990); assay type: functional, cell-based
[7] = target: T3, Replicative DNA helicase DnaB (Mycobacterium tuberculosis, UniProt P9WMR3); assay: DnaB intein splicing inhibitors, dose response, biochemical, cell-free fluorescence (AID 449749); assay type: functional
T3 sequence (P9WMR3 whole entry): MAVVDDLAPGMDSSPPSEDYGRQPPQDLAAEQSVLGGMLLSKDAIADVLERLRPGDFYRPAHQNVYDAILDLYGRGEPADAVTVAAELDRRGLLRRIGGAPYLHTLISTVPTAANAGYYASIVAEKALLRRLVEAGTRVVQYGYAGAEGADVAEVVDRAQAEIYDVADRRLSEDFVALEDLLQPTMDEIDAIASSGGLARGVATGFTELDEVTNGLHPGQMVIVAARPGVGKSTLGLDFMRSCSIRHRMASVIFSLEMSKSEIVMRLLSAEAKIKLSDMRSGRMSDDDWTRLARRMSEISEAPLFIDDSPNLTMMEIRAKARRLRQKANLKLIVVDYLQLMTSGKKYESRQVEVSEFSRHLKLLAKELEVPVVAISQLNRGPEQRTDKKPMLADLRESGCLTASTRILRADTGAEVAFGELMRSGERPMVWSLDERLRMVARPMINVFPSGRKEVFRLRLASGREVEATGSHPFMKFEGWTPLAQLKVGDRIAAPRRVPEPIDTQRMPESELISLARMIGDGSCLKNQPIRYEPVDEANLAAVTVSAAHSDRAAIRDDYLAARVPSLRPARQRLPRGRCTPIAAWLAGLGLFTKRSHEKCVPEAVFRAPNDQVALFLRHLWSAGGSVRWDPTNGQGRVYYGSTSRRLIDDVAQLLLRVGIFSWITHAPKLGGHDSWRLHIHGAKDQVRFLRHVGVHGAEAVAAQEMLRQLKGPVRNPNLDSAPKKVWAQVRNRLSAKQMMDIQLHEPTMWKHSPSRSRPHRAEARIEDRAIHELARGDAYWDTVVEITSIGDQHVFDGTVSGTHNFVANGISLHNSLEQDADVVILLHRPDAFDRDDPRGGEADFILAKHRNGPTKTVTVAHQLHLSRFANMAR

Protein RecA = target: T4, Protein RecA (Mycobacterium tuberculosis, UniProt P9WHJ3); assay: Fluorescence Cell-Free Homogeneous Dose Retest to Identify Inhibitors of RecA-Intein Splicing Activity. [Related pubchem assays (depositor defined):AID2097, AID2223, AID489010, AID492950]; assay type: functional
T4 sequence (P9WHJ3 whole entry): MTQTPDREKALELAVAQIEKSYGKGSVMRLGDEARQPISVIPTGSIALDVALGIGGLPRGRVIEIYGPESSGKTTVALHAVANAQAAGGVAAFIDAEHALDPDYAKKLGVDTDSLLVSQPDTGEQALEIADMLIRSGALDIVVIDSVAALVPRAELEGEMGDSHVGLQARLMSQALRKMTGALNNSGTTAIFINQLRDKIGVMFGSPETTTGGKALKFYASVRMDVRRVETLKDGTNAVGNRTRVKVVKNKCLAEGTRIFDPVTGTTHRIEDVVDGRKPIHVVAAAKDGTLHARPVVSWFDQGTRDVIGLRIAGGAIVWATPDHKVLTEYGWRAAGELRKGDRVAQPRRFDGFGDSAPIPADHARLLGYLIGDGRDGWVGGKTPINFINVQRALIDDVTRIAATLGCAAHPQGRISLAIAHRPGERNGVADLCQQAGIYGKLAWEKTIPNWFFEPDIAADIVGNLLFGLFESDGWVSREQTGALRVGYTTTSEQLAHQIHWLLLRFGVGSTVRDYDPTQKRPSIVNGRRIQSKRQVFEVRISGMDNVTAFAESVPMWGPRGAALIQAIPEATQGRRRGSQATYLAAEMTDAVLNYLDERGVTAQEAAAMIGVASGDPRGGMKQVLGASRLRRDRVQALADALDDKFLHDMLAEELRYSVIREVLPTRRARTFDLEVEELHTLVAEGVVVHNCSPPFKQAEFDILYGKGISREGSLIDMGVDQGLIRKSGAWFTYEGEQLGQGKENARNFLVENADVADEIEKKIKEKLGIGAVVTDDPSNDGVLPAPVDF

Vero = assay: cells; assay type: functional; conditions: Chlorocebus sabaeus
[8] = target: T5, Ubiquitin-conjugating enzyme E2 N (Homo sapiens, UniProt P61088); assay type: functional;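 also: Dose-response confirmation in a TR-FRET assay detecting UBC13-driven polyubiquitin chain formation, inhibition measured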
T5 sequence (P61088 whole entry): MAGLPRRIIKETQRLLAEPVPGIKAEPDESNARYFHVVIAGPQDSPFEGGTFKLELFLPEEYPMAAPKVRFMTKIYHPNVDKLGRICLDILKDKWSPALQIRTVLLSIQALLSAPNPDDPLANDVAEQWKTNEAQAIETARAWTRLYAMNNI

[9] = loss of viability in HepG2 cells – cell-based, CellTiter-Glo, cherry-picked, cytotoxicity control for Shn3 inhibitor project, dose response (AID 624134); assay type: functional
[10] = reduction of Shn3 3'UTR-driven luciferase in osteoblasts – cell-based, Clone20 osteoblasts, firefly luciferase, cherry-picked, dose response (AID 624132); assay type: functional;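 also: firefly luciferase luminescence from reporter carrying the Shn3 3'UTR in osteoblasts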
[11] = non-specific 3'UTR reporter inhibition in Clone20-Shn3RL – cell-based, Renilla luciferase, cherry-picked, counter-screen for Shn3 inhibitor project, dose response (AID 624133); assay type: functional
[12] = blockers of bursicon-stimulated LGR2 cAMP reporter – cell-based, HEK293, CRE-luciferase reporter, cherry pick, set 2, dose response (AID 743343); assay type: functional;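 also: transfected cells were stimulated with diluted bursicon conditioned medium after compound addition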
[13] = blockade of melanocortin 4 receptor signaling – cell-based, plate reader, cherry pick, counter-screen for LGR2 antagonist project, dose response (AID 743444); assay type: functional;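 also: transfected HEK 293 cells stimulated with alpha-MSH peptide; potency of inhibitors of the alpha-MSH evoked signal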
[14] = Trypanosoma cruzi growth suppression in host cells – NIH3T3 host cells, beta-gal luminescence, confirmation (AID 2044); assay type: functional, cell-based;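 also: intracellular parasites grown in NIH/3T3 mouse fibroblasts as host cells; luminescent beta-galactosidase reporter signal from transgenic T. cruzi replicating inside host cells; inhibitors lower the luminescence signal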
Cytochrome P450 2C9 = Cytochrome P450 2C9 (Homo sapiens, UniProt P11712)
[15] = NIH3T3 cell viability loss – ATP luminescence, mouse fibroblasts, counter-screen, dose response (AID 2010); assay type: functional, cell-based;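 also: cells exposed to compound for about 90 hours before reading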
[16] = fluconazole-exposed Candida albicans growth modulators – fluorescence, retest, confirmation (AID 2467); assay type: functional, cell-based
[17] = NIH-3T3 fibroblast cytotoxicity, dose response, cytotoxicity control, cell-based, fluorescence, Alamar Blue, secondary assay (AID 2327); assay type: functional;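 also: NIH-3T3 mouse fibroblasts cultured with fluconazole at 8 µg/mL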

Chain of Cytochrome P450 2C9 (P11712 whole entry): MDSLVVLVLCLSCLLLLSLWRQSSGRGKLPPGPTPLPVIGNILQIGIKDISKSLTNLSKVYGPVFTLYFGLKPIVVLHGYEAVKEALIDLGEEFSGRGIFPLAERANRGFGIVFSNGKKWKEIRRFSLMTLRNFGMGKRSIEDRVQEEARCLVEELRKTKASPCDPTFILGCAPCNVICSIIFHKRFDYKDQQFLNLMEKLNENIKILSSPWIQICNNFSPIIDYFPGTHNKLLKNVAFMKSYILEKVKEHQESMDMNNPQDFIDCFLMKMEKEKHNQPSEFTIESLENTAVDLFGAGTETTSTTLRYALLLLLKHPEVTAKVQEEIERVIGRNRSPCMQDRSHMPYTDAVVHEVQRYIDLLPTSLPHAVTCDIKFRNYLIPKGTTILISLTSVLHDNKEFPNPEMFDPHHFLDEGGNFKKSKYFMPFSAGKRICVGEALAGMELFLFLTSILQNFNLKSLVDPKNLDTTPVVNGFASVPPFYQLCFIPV

## Cc1c(C)n(Cc2ccc(F)cc2)c2ccc(C(=O)N3CCN(c4ccccn4)CC3)cc12
[1]
  EC50: 16.5 µM (active)
Protein skinhead-1
  IC50: > 100 µM (inactive)
Streptococcus
  EC50: 28.4 µM (active)
Streptokinase A
  EC50: 146 µM (inconclusive)

## CCOC(=O)Cc1csc(N/C=C2/C(=O)N(c3ccc(C)c(C)c3)C(=O)c3ccccc32)n1
[2]
  EC50: 15.1 µM (active)
[3]
  EC50: 10 µM (active)
[4]
  EC50: 10.1 µM (active)
[5]
  EC50: > 120 µM (not active)
[6]
  EC50: > 120 µM (not active)

## CCOC(=O)c1nnc(-c2ccccc2)nc1Sc1c(Cl)cccc1Cl
[7]
  AC50: 2.22 µM (active)
[2]
  EC50: 26.9 µM (active)
[3]
  EC50: 27.7 µM (active)
Protein RecA
  EC50: > 380 µM (inconclusive)

## Cn1nccc1-c1ccc(C(=O)Nc2cccc(NS(C)(=O)=O)c2)c2occc12
Protein skinhead-1
  IC50: > 100 µM (inactive)

## C[C@H]1CN([C@@H](C)CO)S(=O)(=O)c2ccc(Br)cc2O[C@@H]1CN(C)Cc1cccc(F)c1
Vero
  CC50: > 25 µM (active)

## Cc1nc(N)c2c(Cc3cccc4ccccc34)nn(C(C)(C)C)c2n1
[8]
  IC50: > 20 µM (inactive)

## O=C(/C=C/c1ccc(OCc2ccccc2)c(OCc2ccccc2)c1)c1cccnc1
[2]
  EC50: 8.72 µM (active)
[3]
  EC50: 6.92 µM (active)
[9]
  AC50: 40.5 µM (active)
[10]
  AC50: 5.19 µM (active)
[11]
  AC50: 19.3 µM (active)

## C=CCNC(=O)c1c(Cl)nc(C)c([N+](=O)[O-])c1C
[12]
  AC50: 42.7 µM (active)
[13]
  AC50: 55.3 µM (active)

## C(=C1/CCCC2=C1Nc1ncnn1C2c1ccccc1)/c1ccccc1 (stereo unspecified)
[2]
  EC50: 3.45 µM (active)
[3]
  EC50: 2.58 µM (active)
[14]
  EC50: 3.45 µM (active)
Cytochrome P450 2C9
  AC50: 7.94 µM (inconclusive)
[15]
  EC50: 6.87 µM (active)

## CC1CCN(c2c(NCc3ccc(C(=O)N4CCN(C5CCCCC5)CC4)cc3)c(=O)c2=O)CC1
[8]
  IC50: > 20 µM (inactive)

## COc1ccccc1/C=C1\CCCC2=C1Nc1nnnn1C2c1ccccc1OC (stereo unspecified)
[2]
  EC50: 8.85 µM (active)
[3]
  EC50: 6.96 µM (active)
[10]
  AC50: 36 µM (active)

## C/C(=N\OCc1ccc(C#N)cc1)c1cc2ccccc2o1
Protein skinhead-1
  IC50: 64 µM (inactive)
[16]
  EC50: > 38 µM (not active)
[17]
  EC50: > 160 µM (inconclusive)

## O=C(CCN1C(=O)/C(=C\c2ccccc2)SC1=S)N1CCOCC1
Vero
  CC50: 24.5 µM (active)

Source: ChEMBL document CHEMBL1201862, “PubChem BioAssay data set” (2004)
